Test results reported in paper PMC10186366 (ACS Pharmacology & Translational Science, 2023).

Legend:
[1] = system: PC43-10 CHO cells (expresses only human RFC); assay: Cell proliferation assay, PC43-10 CHO subline; assay type: cell-based, Chinese hamster; details: 96 h, up to 1000 nM, 25 nM leucovorin, mean (standard error); for IC50: Homo sapiens, PC43-10
Text: (§1) We used a unique panel of engineered Chinese hamster ovary (CHO) sublines derived from a transporter-null MTXRIIOua^R2-4 CHO subline (R2) and designed to individually express human FRα (RT16), FRβ (D4), RFC (PC43-10), or PCFT (R2/PCFT).[39]−[42] As the CHO sublines are isogenic and differ only in the presence or absence of the human folate transporters, differences in the extent of inhibition of cell proliferation between the cell lines upon treatment with the various compounds provide a robust readout of transport specificities.[25],[26],[29],[30],[43]
(§2) The CHO sublines were treated for 96 h with a range of drug concentrations up to 1000 nM; cell viabilities were measured with a fluorescence assay.[26] […] As a control, we used transporter-null R2 cells.[42] To extend studies to human tumor cells, we also performed experiments in RFC-, PCFT-, and FRα-expressing KB tumor cells.[44] To confirm the contribution of FR-mediated uptake to antitumor activity, for KB cells, we added 200 nM folic acid, which inhibits FR uptake by direct competition without effects on either RFC or PCFT.[25],[26],[28]−[30],[43]
(§3) The MTXRIIOua^R2-4 RFC-, PCFT-, and FRα-null Chinese hamster ovary (CHO) cell line (R2) was a gift from Dr. Wayne Flintoff (University of Western Ontario).[40],[42] Isogenic CHO cell lines were subsequently derived from R2 cells by transfection with RFC, PCFT, or FRα cDNAs to generate PC43-10 (expresses only human RFC), R2/PCFT4 (expresses only human PCFT), RT16 (expresses only human FRα), and D4 (expresses only human FRβ).[25],[26],[39]
(§4) The CHO sublines were cultured in α-minimal essential medium (α-MEM) supplemented with 100 U/mL penicillin/100 μg/mL streptomycin, 2 mM L-glutamine, and 10% bovine calf serum (Sigma-Aldrich). For the PC43-10, R2/PCFT4, RT16, and D4 sublines, 1.5 mg/mL G418 was also added. Seventy-two hours prior to in vitro proliferation assays (below), RT16 and D4 CHO cells were grown in folate-free RPMI with dialyzed fetal bovine serum (DFBS) (Invitrogen) supplemented with 100 U/mL penicillin/[…] streptomycin and 2 mM L-glutamine. FRα-expressing KB nasopharyngeal carcinoma cells were acquired from the American Type Culture Collection (Manassas, VA); cells were grown in complete folate-free RPMI 1640 supplemented with 10% fetal bovine serum, 100 U/mL penicillin/100 μg/mL streptomycin, and 2 mM L-glutamine. Cell lines were authenticated by STR analysis (Genetica DNA Laboratories, Burlington, NC) and tested for Mycoplasma by PCR (Venor GeM Mycoplasma Detection Kit, Sigma). Frozen stocks were generated from authenticated Mycoplasma-free cultures.
(§5) Cell proliferation assays used CHO and KB cells cultured in folate-free-RPMI 1640 media with 10% DFBS, 2 mM L-glutamine, and 100 U/mL penicillin/100 μg/mL streptomycin supplemented with 2 nM (KB, RT16, D4) or 25 nM (R2, PC43-10, R2/PCFT4) leucovorin.[25],[26],[30] Parallel incubations with 200 nM folic acid were performed in viability assays to confirm FR-mediated drug uptake. Cells were plated in 96-well dishes at 2500–5000 cells/well in 200 μL media and treated with a range of C1 inhibitors spanning 0 to 1 μM. Cells were treated at 37 ° C with 5% CO2, and numbers were assayed after 96 h using CellTiter-blue (Promega, Madison, WI) and a fluorescence plate reader.[25],[26]

[2] = system: D4 CHO cells (expresses only human FRβ); assay: Cell proliferation assay, D4 CHO subline; assay type: cell-based, Chinese hamster; details: 96 h, 2 nM leucovorin, mean (standard error)
Text: as §1, §2, §3, §4, §5

[3] = system: KB human tumor cells (RFC/FRα/PCFT); assay: Cell proliferation assay, KB tumor cells (with or without 200 nM folic acid); assay type: cell-based; details: 96 h, 2 nM leucovorin, no folic acid, mean (standard error)
Protocol: as §2, §4, §5

SMILES | melting point | IC50 [1] | IC50 [2] | IC50 [3] | IC50 RFC PC43-10 [1]
Nc1nc2sc(CCCCc3cccc(C(=O)N[C@@H](CCC(=O)O)C(=O)O)n3)cc2c(=O)[nH]1 [Compound 3, (6-(4-(2-Amino-4-oxo-3,4-dihydrothieno[2,3-d]pyrimidin-6-yl)butyl)picolinoyl)-L-glutamic Acid] | 125.8 to 126.2 °C | > 1000 nM | 41.9 nM |  | 
Nc1nc2sc(CCCCc3ccc(C(=O)N[C@@H](CCC(=O)O)C(=O)O)nc3)cc2c(=O)[nH]1 [Compound 4, (5-(4-(2-Amino-4-oxo-3,4-dihydrothieno[2,3-d]pyrimidin-6-yl)butyl)picolinoyl)-L-glutamic Acid] |  | > 1000 nM | 60.8 nM | 2.11 nM | 
Nc1nc2sc(CCCc3ccc(C(=O)N[C@@H](CCC(=O)O)C(=O)O)c(F)c3)cc2c(=O)[nH]1 [Compound 6, (4-(3-(2-Amino-4-oxo-3,4-dihydrothieno[2,3-d]pyrimidin-6-yl)propyl)-2-fluorobenzoyl)-L-glutamic Acid] | 128 to 129.8 °C | > 1000 nM | 0.48 nM | 7.19 nM | 
Nc1nc2sc(CCCc3csc(C(=O)N[C@@H](CCC(=O)O)C(=O)O)c3F)cc2c(=O)[nH]1 [Compound 8, (4-(3-(2-Amino-4-oxo-3,4-dihydrothieno[2,3-d]pyrimidin-6-yl)propyl)-3-fluorothiophene-2-carbonyl)-L-glutamic Acid] |  | 560 nM | 0.26 nM | 6.84 nM | slight inhibition
Nc1nc2sc(CCCCc3csc(C(=O)N[C@@H](CCC(=O)O)C(=O)O)c3F)cc2c(=O)[nH]1 [Compound 9, (4-(4-(2-Amino-4-oxo-3,4-dihydrothieno[2,3-d]pyrimidin-6-yl)butyl)-3-fluorothiophene-2-carbonyl)-L-glutamic Acid] | 142.3 to 143.5 °C | > 1000 nM | 0.48 nM | 2.63 nM | 

Second part, led by results:

melting point | SMILES | IC50 [1] | IC50 [2] | IC50 [3] | IC50 RFC PC43-10 [1]
128 to 129.7 °C | Nc1nc2sc(CCCCc3cnc(C(=O)N[C@@H](CCC(=O)O)C(=O)O)c(F)c3)cc2c(=O)[nH]1 [Compound 5, (5-(4-(2-Amino-4-oxo-3,4-dihydrothieno[2,3-d]pyrimidin-6-yl)butyl)-3-fluoropicolinoyl)-L-glutamic Acid] | > 1000 nM | 0.25 nM | 5.05 nM | 
121.7 to 122.6 °C | Nc1nc2sc(CCCCc3ccc(C(=O)N[C@@H](CCC(=O)O)C(=O)O)c(F)c3)cc2c(=O)[nH]1 [Compound 7, (4-(4-(2-Amino-4-oxo-3,4-dihydrothieno[2,3-d]pyrimidin-6-yl)butyl)-2-fluorobenzoyl)-L-glutamic Acid] | > 1000 nM | 1.14 nM | 5.27 nM | 
